Source: US6608062B1 (dated 2003)

melting point [°C]	SMILES
190	Cn1ncnc1COc1nc2c(-c3c(F)cccc3F)nncn2c1-c1ccccc1
195	Cn1ncnc1COc1nc2c(-c3ccccc3F)nncn2c1-c1ccccc1
200	Cn1ncnc1COc1nc2c(-c3cc(F)ccc3F)nncn2c1-c1ccccc1
80 to 84	Cn1ncnc1COc1nc2c(-c3ccccc3)nncn2c1-c1cccc(Cl)c1
179	Cn1ncnc1COc1nc2c(-c3ccccc3)nncn2c1-c1ccccc1 (hydrate or solvate)
130	Cn1ncnc1COc1nc2c(-c3ccc(F)cc3)nncn2c1-c1ccccc1
186	Cn1cnc(COc2nc3c(-c4ccccc4F)nncn3c2-c2ccccc2)n1
120	Cn1ncnc1COc1nc2c(-c3ccccc3F)nncn2c1C1CCC1
137	Cc1nnc(-c2ccccc2)c2nc(OCc3ncnn3C)c(C3CCCC3)n12
94 to 96	CCn1ncnc1COc1nc2c(-c3ccccc3)nnc(C)n2c1C1CCCC1
160	Cc1nnc(-c2ccccc2)c2nc(OCc3ncnn3C)c(C3CCC3)n12
